Laboratory results as given in US20210340502A1, “Generation of Post-Mitotic Migratory Cortical Interneurons” (The McLean Hospital Corporation, priority 2018, published 2021).
“Also recorded” adds a separate entry of the source.

Assays:
MGE progenitors = experiment: KI67+ proliferating MGE progenitors after chemical treatment (immunocytochemistry and cell counting); assay type: cell-based; settings: for proportion of proliferating MGE progenitors (in words): 3 week-old MGE progenitors treated for a week; for Percentage of proliferating cells (Average ± SEM, N): KI67+ cells, 3 week-old MGE progenitors treated 1 week, 20 μM FdU, 1% CultureOne, 10 mM DAPT, 2 μM PD0332991 or combination (CDP)
Protocol: For chemical treatment of cINs, the differentiated progenitors were seeded on PLO/FN-coated surface at 3 weeks after differentiation, and cultured in B27GB media without or with each chemical, 20 μM FdU (Sigma-Aldrich, Natick, Mass., USA), 1% CultureOne (C, Thermo Fisher, Waltham, Mass., USA), […] (D, Sigma-Aldrich, Natick, Mass., USA), and 2 μM PD0332991 (P, Sigma-Aldrich, Natick, Mass., US), or with combination of CultureOne, DAPT and PD0332991 (CDP) for the time period designated in each Figure.
Immunocytochemistry and cell counting. cINs on coverslips were fixed using 4% paraformaldehyde (PFA, Electron Microscopy Sciences, Hatfield, Pa.) for 15 min, washed with PBS and used for staining. The spheres at different differentiation stages were fixed by 4% PFA for 15 min, rinsed with PBS, cryo-protected in the 30% sucrose (Thermo Fisher, Waltham, Mass., USA) overnight at 4° C., mounted on the chuck using the O.C.T. Compound (Thermo Fisher, Waltham, Mass., USA) and cryosectioned at 40 μm using a Leica CM1850 cryostat (Leica Biosystem, Buffalo Grove, Ill., USA). Fixed cells or sphere sections were incubated with blocking/permeablization buffer (PBS with 10% normal serum and 0.1% Triton X-100) for 10 min. The samples were then incubated in primary antibodies in antibody dilution buffer (PBS containing 2% normal serum) overnight at 4° C. After washing with PBS, cells were incubated with fluorescently labeled secondary antibodies and DAPI (Invitrogen, Waltham, Mass., USA)) in antibody dilution buffer for 1 h at room temperature. Following the PBS wash, the samples were mounted with Fluoromount-G (SouthernBiotech, Birmingham, Ala., USA).
For cell counting, multi point function in Image J software (Version 1.51 p, NIH, Bethesda, Md., USA) was used. Percentage of positive cells for each marker was calculated by dividing by DAPI-stained total nuclei number from at least 3 separate biological replicates. For each staining, a total of at least 500 cells were counted for each group.

H9 cINs = experiment: Cryopreservation of cINs with Trehalose in freezing media; assay type: cell-based, human
Protocol: For cryopreservation, the trypsinized cells were resuspended in freezing media (FBS with 10% DMSO) with or without 100 mM Trehalose and were frozen slowly overnight in an insulated container at −80° C. deep freezer. After 24 hours, the stocks were moved to liquid nitrogen storage until further experiments. Frozen stocks were thawed quickly in a 37° C. water bath, transferred to 15 ml conical tubes with 5 ml media, centrifuged and resuspended in B27GB media with ROCK inhibitor for plating and further experiments.

cIN organoids = experiment: Passaging of cIN organoids with Trehalose; assay type: cell-based, human
Protocol: For passaging cINs, cells were trypsinized by 0.05% trypsin (Thermo Fisher, Waltham, Mass., USA) supplemented with or without 10 mM Trehalose (Sigma-Aldrich, Natick, Mass., USA). After 5 minutes' incubation at 37° C., the spheres were triturated to dissociate the spheres. An equal volume of DMEM media with 10% FBS (Hyclone, Marlborough, Mass., USA) was added to neutralize Trypsin. In addition, Turbo DNase (2 U/ml, Thermo Fisher, Waltham, Mass., USA) was added to help clear released DNAs from culture. The cells were then kept in the incubator for additional 15 min to remove any sticky DNA mass released during trituration. After incubation, the cells were centrifuged and resuspended by B27GB media with ROCK inhibitor. To exclude the dead cell cluster, the resuspended cells were filtered through a cell strainer cap (35 μm nylon mesh, Corning, N.Y., USA), and plated onto a PLO/FN-coated surface (Poly-L-Ornithine, 15 ug/ml, Sigma-Aldrich, Natick; Fibronectin, 10 ug/ml, Thermo Fisher, Waltham, Mass., USA) for the subsequent experiments.

SMILES | proportion of proliferating MGE progenitors (in words) (MGE progenitors) | Percentage of proliferating cells (Average ± SEM, N) (MGE progenitors) | survival of cryopreserved cINs after freeze-thaw (H9 cINs; 100 mM Trehalose in freezing media) | cIN phenotypes after freeze-thaw (H9 cINs; SOX6, GAD, β-TUBLIN three weeks after thawing) | viability during cryopreservation (H9 cINs; optimized condition, compared to the cINs passaged without cryopreservation) [%] | survival rate during passaging (cIN organoids; 6 weeks after differentiation, 10 mM Trehalose in trypsin) | increase in survival rate during passaging (cIN organoids; older organoids, after six months' differentiation)
C[C@H](NC(=O)Cc1cc(F)cc(F)c1)C(=O)N[C@H](C(=O)OC(C)(C)C)c1ccccc1 [DAPT] | significantly reduced the proportion of proliferating progenitors; also recorded: worked well to control cell cycle exit of MGE cells | 8.835 ± 1.618, 4% |  |  |  |  | 
O=c1[nH]c(=O)n([C@H]2C[C@H](O)[C@@H](CO)O2)cc1F [FdU, 5-fluoro-2′-deoxyuridine] | did not influence the proportion of proliferating MGE progenitors; also recorded: not effective in reducing immature proliferating cell numbers | 31.719 ± 1.486, 4% |  |  |  |  | 
CC(=O)c1c(C)c2cnc(Nc3ccc(N4CCNCC4)cn3)nc2n(C2CCCC2)c1=O [PD0332991] | significantly reduced the proportion of proliferating progenitors; also recorded: effective in regulating MGE cell cycle exit | 5.160 ± 1.042, 4% |  |  |  |  | 
OC[C@H]1O[C@H](O[C@H]2O[C@H](CO)[C@@H](O)[C@H](O)[C@H]2O)[C@H](O)[C@@H](O)[C@@H]1O [Trehalose] |  |  | significantly increased survival | without affecting their phenotypes | 65.27±8.97 | significantly increased the survival rate | much more pronounced
